Source: patent US4122199A, “Amides of pyrrolidinoethylamine which can be used in treatment of coughs” (Pierre Fabre S.A., priority 1976, dated 1978)
Structures can show the parent of a compound that is named as a salt. Where two headings read alike, the source gives them in different places.

Legend:
guinea pig = assay: Takagi's technique: coughing by mechanical stimulation of the tracheal bifurcation in the unanesthetized guinea pig; format: in vivo; conditions: 50 mg/kg i.p.; for Cough rating, m = average of the ratings, after treatment: 1 heavy, 0.5 light, 0 no cough
Method: A second method using a different type of stimulation of coughs made it possible to note, as compared with codeine, the antitussive properties of the main components claimed.
The technique employed is derived from Takagi's technique, and consists in causing coughing by mechanical stimulation of the tracheal bifurcation in the unanesthetized guinea pig.
The cough is evaluated by the research worker in accordance with the following scale:
The products are administered intraperitoneally and the stimulation is effected 10 and 20 minutes after the injection.

[1] = Solubility characteristics; format: physicochemical; conditions: for Solubility in water / solubility: water
guinea pigs = assay: Citric acid aerosol method on guinea pigs (antitussive); format: in vivo; conditions: for % decrease in no. coughs in 15 mins.: orally, citric acid aerosol
Method: The animals were subjected to a 20% citric acid aerosol for 15 minutes.
The coughs were recorded by a microphone.
The products were administered intraperitoneally 20 minutes before the exposure to the aerosol.
Some derivatives were also tested orally.

in vivo = conditions: mouse, in vivo, mice, isotonic aqueous solution
Method: (§1) It is determined on mice, the products being administered orally, intraperitoneally, and intraveneously in isotonic aqueous solution.

mice = assay: in vivo; conditions: oral, isotonic aqueous solution, hydrochloride
Method: as §1

Pseudomonas aeruginosa = assay: Fungistatic/bacteriostatic effect, Pseudomonas aeruginosa; format: cell-based; conditions: compared with S. aureus and E. coli
Method: (§2) The determination of fungistatic bacteriostatic properties was carried out by two methods on four strains:
(§3) Halved serial dilutions are formed in a hemoylsis tube, in each case to a volume of 1 ml; each dilution is inoculated with 10^6 micro-organisms per ml. After 48 hours in the oven, the minimum inhibitory concentration is determined. A subculture of the negative tubes (bacteriostatic), makes it possible to note the bactericidal concentration.

micro-organisms = assay: Bactericidal action (subculture of the negative tubes); format: cell-based; conditions: at concentrations of 1 g percent
Method: as §2, §3

Candida albicans = assay: Fungistatic/bacteriostatic effect, Candida albicans; format: cell-based; conditions: compared with S. aureus and E. coli
Method: as §2, §3

[2] = iv, intravenous, read-out: DL 50 intravenous
[3] = ip, intraperitoneal, read-out: DL 50 intraperitoneal

SMILES | % variation of cough rating (guinea pig; t + 10 mn) | Cough rating, m = average of the ratings, after treatment (guinea pig; t + 10 mn) | % variation of cough rating (guinea pig; t + 20 mn) | Cough rating, m = average of the ratings, after treatment (guinea pig; t + 20 mn) | Solubility in ethanol ([1]; % soluble) | Solubility in propylene glycol ([1]; % soluble) | Solubility in water ([1]; in words) | LD50 (in vivo; [2]) | solubility ([1]; % soluble) | effect on Pseudomonas aeruginosa (Pseudomonas aeruginosa) | bactericidal action (micro-organisms) | effect on Candida albicans (Candida albicans) | LD50 (in vivo; [3]) | LD50 (in vivo; po, oral, read-out: DL 50 oral) | also measured
COc1ccc2c3c1O[C@H]1[C@@H](O)C=C[C@H]4[C@@H](C2)N(C)CC[C@@]341 [CODEINE, codeine, reference compound] | -22% | 0,75 | -30% | 0,67 | – | – | – | – | – | – | – | – | – | – | –
Cc1cc(Br)cc(C(=O)NCCN2CCCC2)c1O [Example 9, N(2'-pyrrolidino-ethyl)-5-bromo-3-methyl-salicylamide hydrochloride] | – | – | – | – | 3% | 7% | very soluble | – | – | – | – | – | – | – | Solubility in ether ([1]; in words): insoluble
O=C(NCCN1CCCC1)c1cc2ccccc2oc1=O [Example 14, N(2'-pyrrolidino-ethyl)-3-coumarin-carboxamide hydrochloride] | – | – | – | – | 4% | 7% | very soluble | – | – | – | – | – | – | – | –
O=C(NCCN1CCCC1)C(c1ccccc1)c1ccccc1 [F 1459, N(2'-pyrrolidino-ethyl)-α,α-diphenyl acetamide hydrochloride] | -32% | 0,67 | -66% | 0,33 | 5% | 3% | – | 48 mg/kg | 250 mg/mL | more moderate but significant effect | real and significant | more moderate but significant effect | – | – | % decrease in no. coughs in 15 mins. (guinea pigs; 50 mg/kg, hydrochloride): -31; DL 50 oral (mice): 562 mg/kg
CCOC(C(=O)NCCN1CCCC1)(c1ccccc1)c1ccccc1 [F 1460, N(2-pyrrolidino-ethyl)-α,α-diphenyl-α-ethoxy-acetamide hydrochloride] | – | – | – | – | 4% | – | – | 40 mg/kg | 10 mg/mL | – | – | – | 178 mg/kg | 750 mg/kg | Solubility in ether ([1]; in words): insoluble
O=C(NCCN1CCCC1)N1c2ccccc2Sc2ccccc21 [F 1461, N(2'-pyrrolidino-ethyl)-10-phenothiazine carboxamide hydrochloride] | -35% | 0,54 | -55% | 0,37 | 10% | 10% | – | 26 mg/kg | 100 mg/mL | – | – | – | 178 mg/kg | 560 mg/kg | % decrease in no. coughs in 15 mins. (guinea pigs; 50 mg/kg): -12; % decrease in no. coughs in 15 mins. (guinea pigs; 100 mg/kg): -25; Solubility in N-methyl pyrrolidone ([1]; N-methyl pyrrolidone, % soluble): 10%
C=CCOc1c(C)cc(Br)cc1C(=O)NCCN1CCCC1 [F 1479, N(2'-pyrrolidino-ethyl)-2-allyloxy-5-bromo-3-methyl benzamide hydrochloride] | – | – | – | – | – | – | very soluble | – | – | – | – | – | – | – | –
O=C(NCCN1CCCC1)C1c2ccccc2-c2ccccc21 [F 1532, N(2'-pyrrolidino-ethyl)-9-fluoroene-carboxamide hydrochloride] | – | – | – | – | – | – | very soluble | – | – | more moderate but significant effect | real and significant | more moderate but significant effect | 75 mg/kg | 178 mg/kg | Solubility in ethanol ([1]; in words): very soluble; Solubility in propylene glycol ([1]; in words): very soluble
O=C(NCCN1CCCC1)C(c1ccccc1)N1CCCCC1 (stereo not drawn) [F 1533, N(2'-pyrrolidino-ethyl)phenyl piperidino-acetamide] | – | – | – | – | – | – | insoluble | – | – | more moderate but significant effect | real and significant | more moderate but significant effect | 178 mg/kg | 750 mg/kg | change in vivo at 50 mg/kg (guinea pigs; Cavia porcellus, ip, 0.25 h, 50 mg/kg i.p., 20 minutes before 20% citric acid aerosol, read-out: % reduction of no. of coughs in 15 minutes): -7%; Solubility in ethanol ([1]; in words): Very soluble
